Experiments:
[1] = target: T1, human CYP4F2 (Homo sapiens, UniProt P78329); assay: CYP4F2 inhibition test (Test Example 1); format: biochemical; conditions: Escherichia coli membrane fraction expressing human CYP4F2, 2.5 μM luciferine derivative, room temperature 60 minutes, luminescence
T1 construct: host or cells: Escherichia coli (membrane fraction)
T1 sequence (P78329 5-520): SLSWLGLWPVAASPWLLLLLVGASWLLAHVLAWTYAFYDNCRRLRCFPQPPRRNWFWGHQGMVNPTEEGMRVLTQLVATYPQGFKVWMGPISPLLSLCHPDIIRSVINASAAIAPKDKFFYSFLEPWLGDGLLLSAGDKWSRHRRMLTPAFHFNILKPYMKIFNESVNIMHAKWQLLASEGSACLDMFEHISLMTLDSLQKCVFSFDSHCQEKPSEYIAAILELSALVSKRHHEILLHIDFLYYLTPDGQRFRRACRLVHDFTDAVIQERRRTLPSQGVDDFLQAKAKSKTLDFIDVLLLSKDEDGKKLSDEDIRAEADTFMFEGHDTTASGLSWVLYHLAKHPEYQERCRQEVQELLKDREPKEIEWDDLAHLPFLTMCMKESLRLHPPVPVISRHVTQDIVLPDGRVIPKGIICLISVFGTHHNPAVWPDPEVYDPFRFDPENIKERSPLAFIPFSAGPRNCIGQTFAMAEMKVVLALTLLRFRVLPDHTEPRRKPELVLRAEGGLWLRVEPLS
Protocol: (§1) (1) Inhibition Test for Each Compound of the Present Invention Against 20-HETE Producing Enzymes (CYP4F2 and CYP4A11)
(§2) In the CYP4F2 inhibition test, the reaction solution containing each compound [final concentration of 50 mM, KPO4 (pH 7.4), 2.5 μM, luciferine derivative and 1 mM NADPH] was added to an Escherichia coli membrane fraction (100 μg/mL, protein) in which human CYP4F2 had been expressed. In the CYP4A11 inhibition test, the reaction solution containing each compound [final concentration of 100 mM, Tris-HCl (pH 7.5), 60 μM, luciferine derivative, 1.3 mM NADP^+, 3.3 mM Glucose 6-Phosphate, 3.3 mM MgCl2 and 0.4 U/mL Glucose 6-Phosphate dehydrogenase] was added to an Escherichia coli membrane fraction (100 μg/mL, protein) in which human CYP4A11 had been expressed. Following this, the membrane fraction was left to stand at room temperature for 60 minutes to perform an enzymatic reaction. After the reaction, a luciferine detection reagent was added, and the luminescence value was measured using a plate reader.
(§3) A: Luminescence value with addition of compound
(§4) B: Luminescence value without addition of compound and enzyme
(§5) C: Luminescence value without addition of compound

[2] = target: T2, human CYP4A11 (Homo sapiens, UniProt Q02928); assay: CYP4A11 inhibition test (Test Example 1); format: biochemical; conditions: Escherichia coli membrane fraction expressing human CYP4A11, 60 μM luciferine derivative, room temperature 60 minutes, luminescence
T2 construct: host or cells: Escherichia coli (membrane fraction)
T2 sequence (Q02928 5-519): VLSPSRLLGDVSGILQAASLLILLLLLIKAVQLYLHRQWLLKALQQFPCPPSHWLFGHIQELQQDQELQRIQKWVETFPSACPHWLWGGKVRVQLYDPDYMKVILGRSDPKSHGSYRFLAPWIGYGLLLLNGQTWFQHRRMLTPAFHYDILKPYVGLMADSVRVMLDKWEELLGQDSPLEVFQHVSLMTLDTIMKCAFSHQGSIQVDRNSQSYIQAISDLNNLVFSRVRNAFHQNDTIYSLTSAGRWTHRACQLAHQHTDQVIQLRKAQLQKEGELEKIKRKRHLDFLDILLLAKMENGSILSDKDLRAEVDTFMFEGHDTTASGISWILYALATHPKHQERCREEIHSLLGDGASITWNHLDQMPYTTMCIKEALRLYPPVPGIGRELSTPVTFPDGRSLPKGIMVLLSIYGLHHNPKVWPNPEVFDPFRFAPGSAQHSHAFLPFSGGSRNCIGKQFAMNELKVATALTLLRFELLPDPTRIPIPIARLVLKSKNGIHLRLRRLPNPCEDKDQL
Protocol: as §1, §2, §3, §4, §5

SMILES	IC50 [1]	IC50 [2]
C1=C(c2cccc(COc3ccc(-c4ccn[nH]4)nc3)c2)CCC1 [Reference Example 53-1, 5-{[3-(Cyclopent-1-en-1-yl)phenyl]methoxyl}-2-(1H-pyrazol-5-yl)pyridine]	25 nM	210 nM
CCS(=O)(=O)c1cc(COc2ccc(-c3ccn[nH]3)nc2)ccn1 [Example 14-8]	60 nM	53 nM
O=S(=O)(CC1CC1)c1cccc(COc2ccc(-c3ccn[nH]3)nc2)c1 [Example 18-3]	27 nM	24 nM
O=C(c1cc(CO)ccn1)N1CCC[C@@H](COc2ccc(-c3ccn[nH]3)nc2)C1 [Example 3-27]	700 nM	310 nM
COc1cn[nH]c1-c1ccc(OCc2cccc(S(C)(=O)=O)c2)cn1 [Example 24-8]	2600 nM	440 nM
CC1(C(=O)N2CCC(COc3ccc(-c4ccn[nH]4)nc3)CC2)CC1 [Example 2-1, (1-Methylcyclopropyl) [4-({[6-(1H-pyrazol-5-yl)pyridin-3-yl]oxy}methyl)piperidin-1-yl]methanone]	830 nM	1100 nM
CC(=O)N1CC(CCCOc2ccc(-c3ccn[nH]3)nc2)C1 [Example 16-3]	15 nM	4600 nM
CC(C)(C)OC(=O)Nc1cccc(COc2ccc(-c3ccn[nH]3)nc2)c1 [Example 18-7]	95 nM	230 nM
COc1ccc2ccc(COc3ccc(-c4ccn[nH]4)nc3)cc2n1 [Example 25-16]	3.2 nM	2200 nM
COC(=O)N1CCC(CCOc2ccc(-c3ccn[nH]3)nc2)C(C)C1 (single isomer, unassigned) [Example 1-16-1]	240 nM	53 nM
CS(=O)(=O)c1cccc(COc2ccc(-c3ccn[nH]3)nc2)c1 [Example 18-8, 5-[(3-Methylsulfonylphenyl)methoxy]-2-(1H-pyrazol-5-yl)pyridine]	260 nM	63 nM
CC(=O)N1CCC(COc2ccc(-c3cn[nH]c3)nc2)CC1 [Example 39-1, 1-(4-{[6-(1H-Pyrazol-4-yl)pyridin-3-yl]oxymethyl}piperidin-1-yl)ethanone]	240 nM	220 nM
CC(=O)N(C)[C@H]1C[C@@H](COc2ccc(-c3ccn[nH]3)nc2)C1 [Example 17-1-1, N-Methyl-N-[cis-3-({[6-(1H-pyrazol-5-yl)pyridin-3-yl]oxy}methyl)cyclobutyl]acetamide]	20 nM	2000 nM
CC(=O)N1CCC(COc2ccc(-c3ccns3)nc2)CC1 [Example 42-1, 1-(4-{[6-(1,2-Thiazol-5-yl)pyridin-3-yl]oxymethyl}piperidin-1-yl)ethanone]	44 nM	110 nM
CC(C)OC(=O)N1CC(S(=O)(=O)N2CCC[C@@H](COc3ccc(-c4ccn[nH]4)nc3)C2)C1 [Example 1-17]	6.3 nM	51 nM
Fc1ccc(COc2ccc(-c3ccn[nH]3)nc2)cc1Cl [54-6]	29 nM	88 nM
CC(C)(O)CC(=O)N1CCC[C@@H](COc2ccc(-c3ccn[nH]3)nc2)C1 [Example 3-35]	790 nM	1300 nM
CC(C)OC(=O)N1CC(S(=O)(=O)N2CCC[C@H](COc3ccc(-c4ccn[nH]4)nc3)C2)C1 [Example 1-18]	3.6 nM	82 nM
CC(C)c1ccc(COc2ccc(-c3ccn[nH]3)nc2)cc1 [54-14]	33 nM	1200 nM
CC(C)NC(=O)CC(=O)N1CCC[C@@H](COc2ccc(-c3ccn[nH]3)nc2)C1 [Example 2-18]	2900 nM	1800 nM
FC(F)(F)Sc1cccc(COc2ccc(-c3ccn[nH]3)nc2)c1 [Example 25-19]	83 nM	100 nM
Clc1ccc(COc2ccc(-c3ccn[nH]3)nc2)cc1Cl [54-7]	19 nM	170 nM
CC(C)CC(=O)N1CC(S(=O)(=O)N2CCC[C@H](COc3ccc(-c4ccn[nH]4)nc3)C2)C1 [Example 1-19]	3.7 nM	190 nM

SMILES	IC50 [1]	IC50 [2]
CN(C)S(=O)(=O)N1CCC[C@@H](COc2ccc(-c3ccn[nH]3)nc2)C1 [Example 10-5]	73 nM	24 nM
CN(CCC(=O)N1CCC[C@@H](COc2ccc(-c3ccn[nH]3)nc2)C1)C(=O)OC(C)(C)C [Example 2-11, tert-Butyl methyl {3-oxo-3-[(3R)-3-({[6-(1H-pyrazol-5-yl)pyridin-3-yl]oxy}methyl)piperidin-1-yl]propyl}carbamate]	9.5 nM	350 nM
CN(C)C(=O)NCCC(=O)N1CCC[C@@H](COc2ccc(-c3ccn[nH]3)nc2)C1 [Example 1-35]	320 nM	890 nM
O=S(=O)(N1CCCCC1)N1CCC[C@@H](COc2ccc(-c3ccn[nH]3)nc2)C1 [Example 11-1, 5-{[(3R)-1-(Piperidine-1-sulfonyl)piperidin-3-yl]methoxy}-2-(1H-pyrazol-5-yl)pyridine]	4.3 nM	27 nM
N#Cc1ccc(COc2ccc(-c3ccn[nH]3)nc2)cc1 [54-20]	6.5 nM	1600 nM
O=S(=O)(CCCN1CCOCC1)c1cccc(COc2ccc(-c3ccn[nH]3)nc2)c1 [Example 14-10]	11 nM	260 nM
CC(C)S(=O)(=O)N1CCC(CCOc2ccc(-c3ccn[nH]3)nc2)CC1 [Example 10-25]	340 nM	390 nM
CC(C)(C)OC(=O)NCCC(=O)N1CCC[C@@H](COc2ccc(-c3ccn[nH]3)nc2)C1 [Example 3-18]	18 nM	50 nM
Fc1cccc(COc2ccc(-c3ccn[nH]3)nc2)c1 [54-16]	22 nM	520 nM
CC(=O)N1CCC(C)(COc2ccc(-c3ccn[nH]3)nc2)CC1 [Example 13-2]	10 nM	640 nM
O=C(CS(=O)(=O)c1cccc(COc2ccc(-c3ccn[nH]3)nc2)c1)N1CCC1 [Example 18-4]	85 nM	76 nM
c1ccc2cc(COc3ccc(-c4ccn[nH]4)nc3)ccc2c1 [Example 25-14]	16 nM	410 nM
CC(C)OC(=O)NCCC(=O)N1CCC[C@@H](COc2ccc(-c3ccn[nH]3)nc2)C1 [Example 1-32]	27 nM	67 nM
CC(=O)N1CCC(COc2ccc(-c3ncn[nH]3)nc2)CC1 [Example 43-2]	250 nM	1300 nM
CC(=O)N1CCC(COc2ccc(-n3cnnc3)nc2)CC1 [Example 45-5]	1600 nM	11000 nM
CS(=O)(=O)c1cccc(COc2ccc(-c3cnsc3)nc2)c1 [Example 41-3]	1600 nM	520 nM
CC(C)C(=O)N1CCC[C@H](COc2ccc(-c3ccn[nH]3)nc2)C1 [Example 1-12]	21 nM	330 nM
O=C(CS(=O)(=O)c1cccc(COc2ccc(-c3ccn[nH]3)nc2)c1)N1CCCC1 [Example 18-5]	47 nM	140 nM
CC(=O)N1CCC(CCOc2ccc(-c3ccn[nH]3)nc2)CC1 [Example 4-1, 1-[4-(2-{[6-(1H-Pyrazol-5-yl)pyridin-3-yl]oxy}ethyl)piperidin-1-yl]ethan-1-one]	120 nM	550 nM
CN(C)S(=O)(=O)N1CC[C@H](COc2ccc(-c3ccn[nH]3)nc2)C1 [Example 10-14]	320 nM	160 nM
CC(C)(C)c1ccc(COc2ccc(-c3ccn[nH]3)nc2)cc1 [54-15]	440 nM	6300 nM
CC(=O)N1CCCC[C@H]1CCOc1ccc(-c2ccn[nH]2)nc1 [Example 13-6]	1200 nM	530 nM

— patent US20210040062A1, “AZOLE-SUBSTITUTED PYRIDINE COMPOUND” (TAISHO PHARMACEUTICAL CO., LTD., priority 2016, published 2021)
